Assay results taken from patent US20260027105A1, “COMPOUND MEDICINE COMPOSITION FOR TREATING GLAUCOMA AND USE OF SAME” (Shenyang Pharmaceutical University, priority 2022, published 2026).
Structures can show the parent of a compound that is named as a salt. Where two headings read alike, the source gives them in different places.

What was measured:
[1] = Stability and compatibility of netarsudil dimesylate in boric acid-sodium borate buffer solution; format: physicochemical; conditions: commercially available doses mixed in boric acid-sodium borate buffer solution, pH 4.5 to 5.4
[2] = prescribing information and literature reports of Rhopress®, cited from earlier work

| Compound | compatibility with netarsudil dimesylate (white precipitate) [1] | stability in boric acid-sodium borate buffer solution ([2]; pH higher than 5.4) | stability in boric acid-sodium borate buffer solution ([2]; pH lower than 5.4, commercially available dose) |
| --- | --- | --- | --- |
| CC(=O)Oc1c(C)cc(OCC(O)CNC(C)C)c(C)c1C (centres unmarked) [metipranolol hydrochloride] | incompatible | – | – |
| CC(C)(C)NC[C@H](O)COc1nsnc1N1CCOCC1 [timolol maleate] | incompatible | – | – |
| netarsudil dimesylate | – | unstable and prone to generating precipitate | good in stability |
| O=C(O)/C=C\C(=O)O [maleic acid] | incompatible | – | – |
| CC(C)(C)NCC(O)COc1cccc2c1CCC(=O)N2 (centres unmarked) [carteolol hydrochloride] | incompatible | – | – |
| Cl [hydrochloric acid] | incompatible | – | – |
| CC(C)NCC(O)COc1ccc(CCOCC2CC2)cc1 (centres unmarked) [betaxolol hydrochloride] | incompatible | – | – |
